The values below come from patent US10352935B2, “Tumor cell-derived microvesicles” (The Hospital for Sick Children, priority 2007, dated 2019).

For test [1], the system named is A431 tumours. Briefly: Growth of A431 subcutaneous tumours in mice under daily CI-1033. The note with it: 20 mg/kg intraperitoneally, 7 days (FIG. 13A). The class given is in vivo.
For test [2], the system named is Erk1/2 phosphorylation in U373 cells. Nature of the test: Microvesicle transfer assay, Erk1/2 phosphorylation in U373 acceptor cells. The test is classed as cell-based, human. To be noted: microvesicles preincubated with agent, 24 hours (FIG. 3A, 3B). The method, then:
(§1) U373 (acceptor) cells are treated with microvesicles for 24 hours and a single-cell suspension is analyzed by flow cytometry or fluorescent microscopy for expression of EGFRvIII or GFP. […] The expression of microvesicle associated molecules (EGFRvIII, TF), and expression of total and activated MAPK and Akt as well as other changes are assayed by immunoblot (BcIxL, p27/Kip1), ELISA (VEGF, R&D Systems), or promoter activity assays (VEGF), as described elsewhere (Lopez-Ocejo et al. 2000, Oncogene, 40:4611-4620): For soft agar colony formation assays single cell suspensions are prepared in 0.3% agarose from equal numbers of cells pretreated with microvesicles or control media. Cultures are established in plates precoated with 0.5% agarose and all colonies containing more than 4 cells are counted.

Test [3] concerns VEGF production by U373 cells. Briefly: Microvesicle transfer assay, VEGF production by U373 cells (ELISA). The class given is cell-based, human. The note with it: microvesicles preincubated with CI-1033 (FIG. 4A). On the procedure: as §1
On the technique in general: An ELISA detects its analyte on a solid surface through an enzyme-linked reagent.

In test [4] the test system is U373vIII tumours. Briefly: Growth of U373vIII subcutaneous tumours in SCID mice under daily CI-1033. The test is classed as in vivo. The source says: U373 (human astrocytoma) cells, their stable variant U373vIII expressing Tet-off regulated EGFRvIII or EGFRvIII fused at C-terminus to green fluorescent protein (pEGFPN1) cassette (U373vIII-GFP) and A431 are maintained as described previously (Viloria-Petit et at Am. J. Pathology, 1997, 6:1523-1530; Yu et al., 2005, Blood, 105: 1734-1741) in medium containing microvesicle-depleted fetal bovine serum FBS. HUVEC cells are maintained in EGM-2 (Cambrex Bioscience, Walkesville, Md., USA). Microvesicles are collected from conditioned media or mouse plasma, as previously described (Yu & Rak, J. Thromb. Haemost, 2004, 2:2065-67; Al-Nedawi et al., 2005, Arterioscler. Thromb. Vasc. Biol., 25: 1744-1749). Briefly, media are subjected to two successive centrifugations at 300 g and 12000 g to eliminate cells and debris. Microvesicles are pelleted by ultracentrifugation for 2 hours at 100 000 g and quantified by protein content and analyzed for EGFR or EGFRvIII content. For scanning electron microscopy (SEM) the cells are grown on cover slips, fixed with 2.5% gluteraldehyde, stained with 1% OsO4, covered with gold and visualized using the JEOL 840A instrument. For in vivo analyses tumors are generated by injection of 1-10×10^6 U373vIII or U373 cells into immunodeficient (SCID) mice (Charles River, Canada). […]

In test [5] the test system is VEGF promoter activity in U373 cells. Nature of the test: Microvesicle transfer assay, VEGF promoter activity in U373 cells. The class given is cell-based, human. The note with it: microvesicles pretreated with annexin V (FIG. 4B). On the procedure: as §1
Test [6] deals with Akt phosphorylation in U373 cells. Briefly: Microvesicle transfer assay, Akt phosphorylation in U373 acceptor cells. The class given is cell-based, human. The note with it: microvesicles preincubated with annexin V (FIG. 3C). On the procedure: as §1
For test [7], the system named is BcIxL and p27/Kip1 expression in U373 cells. Nature of the test: Microvesicle transfer assay, BcIxL and p27/Kip1 expression in U373 cells (immunoblot). The test is classed as cell-based, human. To be noted: annexin V-mediated blockade of microvesicle uptake. On the procedure: as §1

As for `C=CC(=O)Nc1cc2c(Nc3ccc(F)c(Cl)c3)ncnc2cc1OCCCN1CCOCC1` [CI-1033], the “Tumour response (tumour size)” value in test [1] is given as “responsive”; in test [4] (U373vIII tumours, 20 mg/kg intraperitoneally, daily, 7 days (FIG. 13A)), “responsive”. For the same compound, the “Erk1/2 phosphorylation induced by U373vIII-derived microvesicles” value in test [2] is given as “markedly reduced”. For the same compound, the “Release of VEGF induced by U373vIII microvesicles” value in test [3] is “unable to induce this release of VEGF”. Besides, the “Formation/growth of U373vIII subcutaneous tumors” value in test [4] (SCID mice, daily doses of CI-1033 (FIG. 1D)) was “susceptible to inhibition”.

“annexin V: blocks exposed phosphatidylserine residues of microvesicles and thereby their uptake by U373 cells”: the “VEGF promoter activity stimulated by EGFRvIII containing microvesicles” value in test [5] is “abrogated”. Moreover, in test [2], the “Erk1/2 phosphorylation induced by U373vIII-derived microvesicles” value is recorded as “abrogated”. Also, in test [6], the “Akt phosphorylation induced by U373vIII-derived microvesicles” value is listed as “inhibitable”. In test [7], the “Decrease in levels of p27/Kip1 caused by EGFRvIII-containing microvesicles” value is “inhibited” and the “Increase in expression of BcIxL caused by EGFRvIII-containing microvesicles” value is recorded as “inhibited”.
